Seven compounds from patent US7517872B2, “Compounds for the treatment of hepatitis C” (Bristol-Myers Squibb Company, priority 2007, dated 2009) can be followed below.

SMILES strings stand for the structures. Where two headings read alike, the source gives them in different places.

The test system of experiment [1] is HCV replicon cells. Briefly: HCV replicon FRET assay. Type of experiment: cell-based. The settings on record: Hepatitis C virus. From the text: FRET Assay Preparation. To perform the HCV FRET screening assay, 96-well cell culture plates were used. The FRET peptide (Anaspec, Inc.) (Taliani et al., Anal. Biochem. 1996, 240, 60-67) contains a fluorescence donor, EDANS, near one end of the peptide and an acceptor, DABCYL, near the other end. The fluorescence of the peptide is quenched by […] resonance energy transfer (RET) between the donor and the acceptor, but as the NS3 protease cleaves the peptide the products are released from RET quenching and the fluorescence of the donor becomes apparent. The assay reagent was made as follows: 5× cell Luciferase cell culture lysis reagent from Promega (#E153A) diluted to 1× with dH2O, NaCl added to 150 mM final, the FRET peptide diluted to 20 μM final from a 2 mM stock.
To prepare plates, HCV replicon cells, with or without a Renilla luciferase reporter gene, were trypsinized and placed into each well of a 96-well plate with titrated test compounds added in columns 3 through 12; columns 1 and 2 contained a control compound (HCV protease inhibitor), and the bottom row contained cells without compound. The plates were then placed in a CO2 incubator at 37° C.
Assays. Subsequent to addition of the test compounds described above (FRET Assay Preparation), at various times the plate was removed and Alamar blue solution (Trek Diagnostics, #00-100) was added per well as a measure of cellular toxicity. After reading in a Cytoflour 4000 instrument (PE Biosystems), plates were rinsed with PBS and then used for FRET assay by the addition of 30 ul of the FRET peptide assay reagent described above (FRET Assay Preparation) per well. The plate was then placed into the Cytoflour 4000 instrument which had been set to 340 excite/490 emission, automatic mode for 20 cycles and the plate read in a kinetic mode. Typically, the signal to noise using an endpoint analysis after the reads was at least three-fold. Alternatively, after Alamar blue reading, plates were rinsed with PBS, 50 ul of DMEM (high glucose) without phenol red was added and plates were then used for luciferase assay using the Promega Dual-Glo Luciferase Assay System.
Compound analysis was determined by quantification of the relative HCV replicon inhibition and the relative cytotoxicity values. To calculate cytoxicity values, the average Alamar Blue fluorescence signals from the control wells were set as 100% non-toxic. The individual signals in each of the compound test wells were then divided by the average control signal and multiplied by 100% to determine […]. To calculate the HCV replicon inhibition values, an average background value was obtained from the two wells containing the highest amount of HCV protease inhibitor at the end of the assay period. These numbers were similar to those obtained from naive Huh-7 cells.
The background numbers were then subtracted from the average signal obtained from the control wells and this number was used as 100% activity. The individual signals in each of the compound test wells were then divided by the averaged control values after background subtraction and multiplied by 100% to determine percent activity. EC50 values for a protease inhibitor titration were calculated as the concentration which caused a 50% reduction in FRET or luciferase activity. The two numbers generated for the compound plate, percent cytoxicity and percent activity were used to determine compounds of interest for further analysis.
(In general: A replicon is a self-replicating genome or part of one, used to study replication in cells.)

Experiment [2] addresses T1, HCV NS5B RdRp genotype 1b (Hepatitis C virus genotype 1b, UniProt Q9WMX2).
T1 construct: The protein was expressed with an 18 amino acid C-terminal truncation to enhance the solubility; made in house; host or cells: E. coli BL21(DE3), pET21a vector
Briefly: Modified HCV NS5B RdRp enzyme assay (preincubation protocol). The class given is biochemical. The method, then: HCV NS5B RdRp cloning, expression, and purification. The cDNA encoding the NS5B protein of HCV, genotype 1b, was cloned into the pET21a expression vector. The protein was expressed with an 18 amino acid C-terminal truncation to enhance the solubility. The E. coli competent cell line BL21(DE3) was used for expression of the protein. Cultures were grown at 37° C. for ˜4 hours until the cultures reached an optical density of 2.0 at 600 nm. The cultures were cooled to 20° C. and induced with 1 mM IPTG. Fresh ampicillin was added to a final concentration of 50 μg/ml and the cells were grown overnight at 20° C.
Cell pellets (3L) were lysed for purification to yield 15-24 mgs of purified NS5B. The lysis buffer consisted of 20 mM Tris-HCl, pH 7.4, 500 mM NaCl, 0.5% triton X-100, 1 mM DTT, 1 mM EDTA, 20% glycerol, 0.5 mg/ml lysozyme, 10 mM MgCl2, 15 ug/ml deoxyribonuclease I, and Complete TM protease inhibitor tablets (Roche). After addition of the lysis buffer, frozen cell pellets were resuspended using a tissue homogenizer. To reduce the viscosity of the sample, aliquots of the lysate were sonicated on ice using a microtip attached to a Branson sonicator. The sonicated lysate was centrifuged at 100,000×g for 1 hr at 4° C. and filtered through a 0.2 μm filter unit (Corning).
The protein was purified using three sequential chromatography steps: Heparin sepharose CL-6B, polyU sepharose 4B, and Hitrap SP sepharose (Pharmacia). The chromatography buffers were identical to the lysis buffer but contained no lysozyme, deoxyribonuclease I, MgCl2 or protease inhibitor and the NaCl concentration of the buffer was adjusted according to the requirements for charging the protein onto the column. Each column was eluted with a NaCl gradient which varied in length from 5-50 column volumes depending on the column type. After the final chromatography step, the resulting purity of the enzyme is >90% based on SDS-PAGE analysis. The enzyme was aliquoted and stored at −80° C.
Standard HCV NS5B RdRp enzyme assay. HCV RdRp genotype 1b assays were run in a final volume of 60 μl in 96 well plates (Costar 3912). The assay buffer is composed of 20 mM Hepes, pH 7.5, 2.5 mM KCl, 2.5 mM MgCl2, 1 mM DTT, 1.6 U RNAse inhibitor (Promega N2515), 0.1 mg/ml BSA (Promega R3961), and 2% glycerol. All compounds were serially diluted (3-fold) in DMSO and diluted further in water such that the final concentration of DMSO in the assay was 2%. HCV RdRp genotype 1b enzyme was used at a final concentration of 28 nM. A polyA template was used at 6 nM, and a biotinylated oligo-dT12 primer was used at 180 nM final concentration. Template was obtained commercially (Amersham 27-4110). Biotinylated primer was prepared by Sigma Genosys. 3H-UTP was used at 0.6 μCi (0.29 μM total UTP). Reactions were initiated by the addition of enzyme, incubated at 30° C. for 60 min, and stopped by adding 25 μl of 50 mM EDTA containing SPA beads (4 μg/μl, Amersham RPNQ 0007). Plates were read on a Packard Top Count NXT after >1 hr incubation at room temperature.
Modified HCV NS5B RdRp enzyme assay. A modified enzyme assay was performed essentially as described for the standard enzyme assay except for the following: The biotinylated oligo dT12 primer was precaptured on streptavidin-coated SPA beads by mixing primer and beads in assay buffer and incubating at room temperature for one hour. Unbound primer was removed after centrifugation. The primer-bound beads were resuspended in 20 mM Hepes buffer, pH 7.5 and used in the assay at final concentrations of 20 nM primer and 0.67 μg/μl beads. Order of addition in the assay: enzyme (14 nM) was added to diluted compound followed by the addition of a mixture of template (0.2 nM), 3H-UTP (0.6 μCi, 0.29 μM), and primer-bound beads, to initiate the reaction; concentrations given are final. Reactions were allowed to proceed for 4 hours at 30° C.
IC50 values for compounds were determined using seven different [I]. […]

Setting [3] is: HCV replicon cells, FRET assay, read-out: EC50.
[4] abbreviates: HCV NS5B RdRp genotype 1b, preincubation protocol, read-out: IC50.

T1 sequence (Q9WMX2 2420-2992): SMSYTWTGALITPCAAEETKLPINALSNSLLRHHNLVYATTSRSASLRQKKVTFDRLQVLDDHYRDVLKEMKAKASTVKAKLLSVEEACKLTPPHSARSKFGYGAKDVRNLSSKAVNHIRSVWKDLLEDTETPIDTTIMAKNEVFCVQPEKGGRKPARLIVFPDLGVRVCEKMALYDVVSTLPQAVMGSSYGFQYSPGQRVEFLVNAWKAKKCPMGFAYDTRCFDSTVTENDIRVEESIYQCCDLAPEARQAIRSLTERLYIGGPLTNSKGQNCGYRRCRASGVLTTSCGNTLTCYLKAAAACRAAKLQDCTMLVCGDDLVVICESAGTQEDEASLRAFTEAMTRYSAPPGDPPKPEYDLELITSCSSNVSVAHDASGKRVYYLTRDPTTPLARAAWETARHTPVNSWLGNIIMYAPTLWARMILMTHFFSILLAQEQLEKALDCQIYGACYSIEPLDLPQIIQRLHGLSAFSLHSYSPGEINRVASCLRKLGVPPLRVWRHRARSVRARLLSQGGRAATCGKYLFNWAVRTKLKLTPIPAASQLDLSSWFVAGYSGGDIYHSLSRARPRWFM

As for `COc1ccc2c(c1)C=C(C(=O)N1C[C@@H](C)O[C@@H](C)C1)Cn1c-2c(C2CCCCC2)c2ccc(C(=O)NS(=O)(=O)N(C)C)nc21`, the EC50 (as a rule, the concentration that produces a half-maximal response) in experiment [1] (setting [3]) is above 500 nM. For the same compound, the IC50 (in general, the concentration that gives 50% inhibition) in experiment [2] (setting [4]) fell in the range of 1 to 500 nM.

As to `COc1ccc2c(c1)C=C(C(=O)N1C[C@@H](C)N(C)[C@@H](C)C1)Cn1c-2c(C2CCCCC2)c2ccc(C(=O)NS(=O)(=O)N(C)C)nc21`, the EC50 in experiment [1] (setting [3]) fell in the range of 1 to 500 nM. The IC50 in experiment [2] (setting [4]) lay within 1 to 500 nM.

In experiment [1], `COc1ccc2c(c1)[C@@H]1C[C@]1(C(=O)N1[C@@H]3CC[C@H]1CN(C)C3)Cn1c-2c(C2CCCCC2)c2ccc(C(=O)NS(=O)(=O)N(C)C)nc21` gave an EC50 above 100 nM. Moreover, in experiment [2], the IC50 is 1 to 500 nM.

Regarding `COc1ccc2c(c1)C=C(C(=O)N1C[C@@H](C)O[C@@H](C)C1)Cn1c-2c(C2CCCCC2)c2cccnc21`, the EC50 in experiment [1] (setting [3]) is above 370 nM. Moreover, the 50% inhibitory concentration (IC50) in experiment [2] (setting [4]) lay within 500 to 10000 nM.

Regarding `COC(=O)C1=Cc2cc(OC)ccc2-c2c(C3CCCCC3)c3ccc(C(=O)NS(=O)(=O)N(C)C)nc3n2C1`, in experiment [1] (setting [3]), the EC50 is 500 to 10000 nM. Besides, the IC50 in experiment [2] (setting [4]) was in the range of 1 to 500 nM.

`CNS(=O)(=O)NC(=O)c1ccc2c(C3CCCCC3)c3n(c2n1)CC(C(=O)N1C[C@@H](C)O[C@@H](C)C1)=Cc1cc(OC)ccc1-3`: the EC50 in experiment [1] (setting [3]) lay within 500 to 10000 nM. In experiment [2] (setting [4]), the IC50 fell in the range of 1 to 500 nM.

In experiment [1], `COc1ccc2c(c1)[C@@H]1C[C@]1(C(=O)N1[C@@H]3CC[C@H]1CN(C)C3)Cn1c-2c(C2CCCCC2)c2ccc(C(=O)N(C)S(=O)(=O)N(C)C)nc21` displayed an EC50 above 100 nM. Besides, the 50% inhibitory concentration (IC50) in experiment [2] fell in the range of 500 to 10000 nM.
